Experimental data reported in patent US20090176864A1, “Methods For Improving Hepatic and Immune Function In An Animal” (Hill's Pet Nutrition, Inc., priority 2004, published 2009).

Legend:
Type in all cases: in vivo
lymphocyte proliferation [1] = assay: Concanavalin A-activated lymphocyte proliferation; details: cats; for Concanavalin A-activated lymphocyte proliferation compared to baseline: 6 weeks
Method: (§1) The study involved three groups of cats: Group 1) cats on a dry control food, Group 2) cats on a dry food fortified with approximately 65 ppm of lipoic acid, and Group 3) cats on a dry food fortified with approximately 650 ppm of lipoic acid on a dry matter basis. All cats were fled control food for a two week baseline period at the end of which time immune function assays were performed. One group of cats was then switched to the 65 ppm test food, one group to the 650 ppm test food and one group remained on control and all were fed for another 6 weeks at which time the baseline tests were performed again.

lymphocyte proliferation [2] = assay: Lymphocyte proliferation activity in old cats (overall statement); details: lipoic acid in food
Method: as §1

[3] = Bodyweight of cats fed lipoic acid fortified food
Method: as §1

lymphocyte proliferation [4] = assay: Phytohaemagglutinin (PHA)-activated lymphocyte proliferation; details: cats
Method: as §1

lymphocyte proliferation [5] = assay: Pokeweed mitogen-activated lymphocyte proliferation; details: cats
Method: as §1

[6] = 65 ppm lipoic acid in food, 6 weeks

O=C(O)CCCC[C@@H]1CCSS1 (racemic) [lipoic acid]
Concanavalin A-activated lymphocyte proliferation compared to baseline (lymphocyte proliferation [1]; 65 ppm lipoic acid in food): significant increase | Concanavalin A-activated lymphocyte proliferation compared to baseline (lymphocyte proliferation [1]; 650 ppm lipoic acid in food): displayed an increase | Concanavalin A stimulation, difference between the groups (lymphocyte proliferation [1]; control vs 65 ppm vs 650 ppm, beginning and end of study): no significant difference | lymphocyte proliferation activity (lymphocyte proliferation [2]): improved | effects on bodyweight ([3]; 65 ppm lipoic acid in food for 6 weeks): no adverse effects | effects on bodyweight ([3]; 650 ppm lipoic acid in food for 6 weeks): no adverse effects | PHA-stimulated lymphocyte proliferation between baseline and 6 weeks (lymphocyte proliferation [4]; [6]): significant increase | PHA stimulation, difference between groups (lymphocyte proliferation [4]; control vs 65 ppm vs 650 ppm, beginning or end): no significant difference | Pokeweed mitogen-stimulated lymphocyte proliferation compared to baseline (lymphocyte proliferation [5]; [6]): significantly increased | Pokeweed Mitogen stimulation, difference between groups (lymphocyte proliferation [5]; control vs 65 ppm vs 650 ppm, ANOVA, beginning and end of study): different between groups (ANOVA P<0.05) at the beginning but not the end
